According to article PMC13108699, “Mass balance and metabolite profiling of ^14C-Zalunfiban in humans following single-dose subcutaneous administration” (Xenobiotica; the fate of foreign compounds in biological …, 2025):

Legend:
[1] = Safety assessments (adverse events, laboratory, vital signs, ECG); assay type: in vivo, human; conditions: for Tolerability: single SC 9.5 mg, 8 healthy males
Protocol: The study was reviewed, approved, and monitored by both an independent Institutional Review Board and a Data Safety Monitoring Board, and the protocol was performed under an Investigational New Drug Application. The safety of single-dose SC zalunfiban was evaluated by monitoring adverse events, clinical laboratory data, vital signs, 12-lead electrocardiogram, and physical examination. Vital signs (blood pressure, heart rate, body temperature, respiratory rate) were measured at screening, admission, pre-dose, post-dose at 1, 4, 8, hours, and in the morning on study days 2–11. Safety laboratory tests included serum chemistry, haematology, coagulation, and urinalysis, and were performed at screening, admission, and on study days 1, 4, and 11. On day 1, additional platelet counts were performed post-dose at 2, 6, and 12 h. […] Participants were continuously monitored for adverse events (AEs) and new use of medication(s).
During the study, AEs were collected from the time of informed consent to the last time the participant was seen. Any AE that occurred after the start of study drug administration was considered a treatment-emergent AE (TEAE). The investigator or designee assessed the severity of all AEs using the toxicity grading scale in National Cancer Institute Common Terminology Criteria for Adverse Events v5.0. These scales assign a grade of 1 through 5 to indicate the severity of AEs.

[2] = Cumulative excretion of ^14C in urine and faeces (mass balance); assay type: in vivo, human
Source text: This was a Phase 1, single-centre, open-label, non-controlled, mass balance and metabolite profiling study of ^14C-radiolabeled zalunfiban in health male volunteers (NCT04284995). The planned participant enrolment size was 8, with 2 additional alternate participants available on the morning of dosing. Following a 28-day screening period, all eligible participants were admitted to the research unit the evening before dosing. After fasting overnight, participants completed a standard breakfast prior to dosing on study day 1. After dosing, subjects fasted for 4 h. Fluids were permitted ad libitum starting 1-hour after dosing. […]
Whole blood samples were analysed using accelerator mass spectrometry (AMS). […] Each sample was counted for at least 10 min or until the 2%2σ terminator was reached. […] The CO2 produced was trapped in a Carbosorb/Permafluor 2:1 v/v (Perkin Elmer, Waltham MA) to determine total carbon content and the ^14C:^12C ratio and then analysed by AMS.
A carbon content correction based upon pre-dose whole blood samples and urine samples was applied to all post dose samples. As the carbon content of homogenised faeces can be variable, all homogenised faeces samples were analysed by C,H,N using a Thermo Scientific FlashSmart elemental analyser (Waltham, MA). Urea standards were used to calibrate and normalise the C,H,N, and the carbon content of each sample was determined. […]

NCC(=O)Nc1cncc(-c2nn3c(=O)cc(N4CCNCC4)nc3s2)c1 [Zalunfiban, 2-amino-N-{5-[5-oxo-7-(piperazin-1-yl)-5H-[1,3,4]thia-diazolo[3,2-a]pyrimidin-2-yl]pyridin-3-yl}acetamide]
TEAE headache ([1]; 1 grade 1 and one grade 2, of 8 dosed): 2 participants | Changes in clinical laboratory tests, vital signs, or ECGs ([1]; 8 dosed): no observed clinically significant changes | Serious TEAEs ([1]; 8 dosed): no serious TEAEs | TEAEs leading to study discontinuation ([1]; 8 dosed): no TEAEs leading to study discontinuation | TEAE confusion ([1]; grade 1, of 8 dosed): 1 participant | TEAE injection site bruising ([1]; grade 1, of 8 dosed): 1 participant | TEAE injection site pain ([1]; grade 1, of 8 dosed): 1 participant | Participants with Grade 1 AEs ([1]; of 8 dosed): 4 participants | Participants with a Grade 2 AE ([1]; of 8 dosed): 1 participant | Tolerability [1]: well-tolerated | Tolerability ([1]; listed as 14C-zalunfiban): safe and well-tolerated | Radioactivity recovered in urine and faeces ([2]; by 48 h, on average): more than 80% | Cumulative percentage of recovered ^14C (urine plus faeces) ([2]; by 240 h post-dose, range over participants, listed as 14C-zalunfiban): > 90%
